Test results published in ChEMBL document CHEMBL5291721, “A preclinical secondary pharmacology resource illuminates target-adverse drug reaction associations of marketed drugs” (Nat Commun, 2023).

Columns and labels:
[1] = molecular target: Gamma-aminobutyric acid receptor subunit alpha-1/alpha-2/beta-2/gamma-2 (Homo sapiens, UniProt P14867+P18507+P47869+P47870); assay type: protein-complex assay
[2] = molecular target: Gamma-aminobutyric acid receptor subunit alpha-1 (Rattus norvegicus, UniProt P62813)
Chain of Gamma-aminobutyric acid receptor subunit alpha-1 (P62813 whole entry): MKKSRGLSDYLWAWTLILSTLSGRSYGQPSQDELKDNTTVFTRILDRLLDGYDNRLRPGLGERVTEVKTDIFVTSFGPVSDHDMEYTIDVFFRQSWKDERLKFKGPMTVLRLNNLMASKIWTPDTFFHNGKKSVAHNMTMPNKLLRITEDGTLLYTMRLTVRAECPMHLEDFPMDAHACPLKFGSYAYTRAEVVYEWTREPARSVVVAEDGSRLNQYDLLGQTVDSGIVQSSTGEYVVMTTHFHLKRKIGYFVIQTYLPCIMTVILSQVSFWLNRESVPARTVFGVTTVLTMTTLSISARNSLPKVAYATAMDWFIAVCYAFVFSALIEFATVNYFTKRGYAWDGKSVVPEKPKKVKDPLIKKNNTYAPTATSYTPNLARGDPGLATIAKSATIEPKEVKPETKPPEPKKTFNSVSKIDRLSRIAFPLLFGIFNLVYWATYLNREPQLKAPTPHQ

[3] = molecular target: 5-hydroxytryptamine receptor 2B (Homo sapiens, UniProt P41595); assay type: functional, cell-based
Chain of 5-hydroxytryptamine receptor 2B (P41595 whole entry): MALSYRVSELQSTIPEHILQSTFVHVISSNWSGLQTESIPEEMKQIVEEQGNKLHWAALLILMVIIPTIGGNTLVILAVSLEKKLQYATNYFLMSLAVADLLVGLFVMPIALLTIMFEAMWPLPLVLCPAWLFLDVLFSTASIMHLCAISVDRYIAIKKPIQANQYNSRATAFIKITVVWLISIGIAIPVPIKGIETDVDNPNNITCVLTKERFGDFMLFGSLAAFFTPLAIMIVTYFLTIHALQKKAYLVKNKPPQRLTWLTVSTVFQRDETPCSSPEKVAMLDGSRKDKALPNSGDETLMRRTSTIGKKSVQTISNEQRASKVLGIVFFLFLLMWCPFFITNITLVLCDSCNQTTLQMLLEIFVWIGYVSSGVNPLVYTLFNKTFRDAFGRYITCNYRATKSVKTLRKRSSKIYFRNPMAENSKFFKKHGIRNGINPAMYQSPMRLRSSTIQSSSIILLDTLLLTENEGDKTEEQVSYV

[4] = molecular target: Growth hormone secretagogue receptor type 1 (Homo sapiens, UniProt Q92847)
Chain of Growth hormone secretagogue receptor type 1 (Q92847 whole entry): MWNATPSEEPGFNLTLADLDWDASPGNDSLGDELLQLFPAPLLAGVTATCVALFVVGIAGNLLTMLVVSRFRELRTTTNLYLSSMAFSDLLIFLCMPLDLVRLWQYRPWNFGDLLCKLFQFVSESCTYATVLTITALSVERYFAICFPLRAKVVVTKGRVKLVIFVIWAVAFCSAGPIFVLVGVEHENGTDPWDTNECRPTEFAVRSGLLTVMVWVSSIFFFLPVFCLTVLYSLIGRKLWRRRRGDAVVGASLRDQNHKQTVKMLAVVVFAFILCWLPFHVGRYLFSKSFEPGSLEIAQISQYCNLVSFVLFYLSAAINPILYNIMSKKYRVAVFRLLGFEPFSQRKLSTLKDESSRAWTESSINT

D(3) dopamine receptor = D(3) dopamine receptor (Homo sapiens, UniProt P35462)
Chain of D(3) dopamine receptor (P35462 whole entry): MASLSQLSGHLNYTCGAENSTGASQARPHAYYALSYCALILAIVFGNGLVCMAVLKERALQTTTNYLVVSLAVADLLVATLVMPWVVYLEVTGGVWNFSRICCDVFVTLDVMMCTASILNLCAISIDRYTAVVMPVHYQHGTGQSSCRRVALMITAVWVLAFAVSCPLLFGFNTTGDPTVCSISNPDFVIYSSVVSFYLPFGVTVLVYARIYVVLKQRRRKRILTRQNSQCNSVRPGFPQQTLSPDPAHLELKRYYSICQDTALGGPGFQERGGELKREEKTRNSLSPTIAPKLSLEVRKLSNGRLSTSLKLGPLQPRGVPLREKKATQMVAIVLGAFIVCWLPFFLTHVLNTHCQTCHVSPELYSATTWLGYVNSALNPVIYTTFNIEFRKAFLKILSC

Histamine H2 receptor = Histamine H2 receptor (Homo sapiens, UniProt P25021); assay type: functional, cell-based
Chain of Histamine H2 receptor (P25021 whole entry): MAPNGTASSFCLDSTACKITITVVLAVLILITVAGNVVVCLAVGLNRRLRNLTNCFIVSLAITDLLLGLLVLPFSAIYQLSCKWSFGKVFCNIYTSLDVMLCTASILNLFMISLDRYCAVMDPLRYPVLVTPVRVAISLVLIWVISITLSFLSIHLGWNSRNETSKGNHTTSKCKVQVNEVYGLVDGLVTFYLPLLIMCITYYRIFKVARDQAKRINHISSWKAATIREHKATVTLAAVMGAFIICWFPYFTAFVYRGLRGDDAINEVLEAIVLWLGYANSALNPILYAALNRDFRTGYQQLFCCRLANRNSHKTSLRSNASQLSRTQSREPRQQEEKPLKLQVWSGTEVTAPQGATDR

[5] = molecular target: T1, 5-hydroxytryptamine receptor 3A (Homo sapiens, UniProt P46098); assay type: functional
T1 sequence (P46098 whole entry): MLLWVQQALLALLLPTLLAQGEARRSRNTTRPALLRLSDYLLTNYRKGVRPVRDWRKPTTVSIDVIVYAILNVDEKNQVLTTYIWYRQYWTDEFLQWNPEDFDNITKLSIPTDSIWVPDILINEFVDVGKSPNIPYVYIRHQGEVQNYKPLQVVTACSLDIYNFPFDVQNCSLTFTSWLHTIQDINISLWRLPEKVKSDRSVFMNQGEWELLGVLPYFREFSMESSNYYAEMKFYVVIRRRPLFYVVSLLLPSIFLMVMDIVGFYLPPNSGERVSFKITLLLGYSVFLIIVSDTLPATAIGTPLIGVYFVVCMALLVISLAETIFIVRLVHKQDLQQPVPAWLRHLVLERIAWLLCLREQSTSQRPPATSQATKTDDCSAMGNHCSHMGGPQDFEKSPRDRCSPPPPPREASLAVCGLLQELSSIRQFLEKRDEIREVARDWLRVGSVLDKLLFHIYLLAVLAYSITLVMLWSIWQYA

[6] = molecular target: 3',5'-cyclic-AMP phosphodiesterase 4D (Homo sapiens, UniProt Q08499); assay type: functional
Chain of 3',5'-cyclic-AMP phosphodiesterase 4D (Q08499 whole entry): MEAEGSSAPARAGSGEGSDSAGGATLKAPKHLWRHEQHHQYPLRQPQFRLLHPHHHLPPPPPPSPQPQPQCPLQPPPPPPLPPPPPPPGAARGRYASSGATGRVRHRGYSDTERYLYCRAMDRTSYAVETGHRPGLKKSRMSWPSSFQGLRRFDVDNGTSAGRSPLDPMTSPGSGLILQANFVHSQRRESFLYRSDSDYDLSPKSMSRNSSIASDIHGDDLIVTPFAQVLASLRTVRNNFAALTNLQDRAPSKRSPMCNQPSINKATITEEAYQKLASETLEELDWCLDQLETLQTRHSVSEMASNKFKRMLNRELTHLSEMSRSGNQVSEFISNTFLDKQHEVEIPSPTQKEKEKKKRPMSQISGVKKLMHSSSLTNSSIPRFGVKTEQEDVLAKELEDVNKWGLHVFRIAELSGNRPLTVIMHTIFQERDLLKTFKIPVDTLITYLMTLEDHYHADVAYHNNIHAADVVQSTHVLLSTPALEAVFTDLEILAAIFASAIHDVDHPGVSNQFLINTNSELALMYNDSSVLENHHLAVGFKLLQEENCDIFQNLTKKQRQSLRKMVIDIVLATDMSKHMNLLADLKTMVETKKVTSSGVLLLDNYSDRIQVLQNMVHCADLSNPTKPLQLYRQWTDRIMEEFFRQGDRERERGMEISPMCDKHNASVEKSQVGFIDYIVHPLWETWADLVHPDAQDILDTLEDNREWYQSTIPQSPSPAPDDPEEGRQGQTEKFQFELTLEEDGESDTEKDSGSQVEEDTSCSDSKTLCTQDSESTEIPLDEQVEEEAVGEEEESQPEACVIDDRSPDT

[7] = molecular target: 5-hydroxytryptamine receptor 2A (Homo sapiens, UniProt P28223); assay type: functional, cell-based
Chain of 5-hydroxytryptamine receptor 2A (P28223 whole entry): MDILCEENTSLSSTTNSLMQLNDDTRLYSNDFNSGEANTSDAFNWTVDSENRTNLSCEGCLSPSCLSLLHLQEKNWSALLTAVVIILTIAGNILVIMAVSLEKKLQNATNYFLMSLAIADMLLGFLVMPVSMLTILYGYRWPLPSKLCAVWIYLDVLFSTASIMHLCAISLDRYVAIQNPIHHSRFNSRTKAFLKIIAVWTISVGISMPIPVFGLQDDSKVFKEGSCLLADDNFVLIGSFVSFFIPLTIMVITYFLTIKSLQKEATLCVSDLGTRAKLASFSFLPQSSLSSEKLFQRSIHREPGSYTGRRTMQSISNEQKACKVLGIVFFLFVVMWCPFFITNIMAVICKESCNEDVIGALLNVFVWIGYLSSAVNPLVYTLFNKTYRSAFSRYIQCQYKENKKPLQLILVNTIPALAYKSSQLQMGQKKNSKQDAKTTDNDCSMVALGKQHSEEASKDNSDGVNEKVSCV

Cannabinoid receptor 1 [8] = molecular target: T2, Cannabinoid receptor 1 (Homo sapiens, UniProt P21554); assay type: functional, cell-based
T2 sequence (P21554 whole entry): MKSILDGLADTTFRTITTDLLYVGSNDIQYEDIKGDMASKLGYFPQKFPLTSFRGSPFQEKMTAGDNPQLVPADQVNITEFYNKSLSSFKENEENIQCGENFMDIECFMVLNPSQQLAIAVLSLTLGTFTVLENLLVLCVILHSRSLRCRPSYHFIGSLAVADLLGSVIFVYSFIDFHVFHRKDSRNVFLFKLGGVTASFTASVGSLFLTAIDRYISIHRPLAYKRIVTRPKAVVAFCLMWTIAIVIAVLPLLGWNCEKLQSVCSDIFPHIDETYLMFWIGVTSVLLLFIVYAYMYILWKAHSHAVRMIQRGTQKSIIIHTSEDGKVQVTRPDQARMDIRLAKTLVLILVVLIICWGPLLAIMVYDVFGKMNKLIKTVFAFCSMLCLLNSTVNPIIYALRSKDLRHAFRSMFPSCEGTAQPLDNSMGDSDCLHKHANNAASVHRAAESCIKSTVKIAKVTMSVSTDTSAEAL

Histamine H1 receptor = Histamine H1 receptor (Homo sapiens, UniProt P35367)
Chain of Histamine H1 receptor (P35367 whole entry): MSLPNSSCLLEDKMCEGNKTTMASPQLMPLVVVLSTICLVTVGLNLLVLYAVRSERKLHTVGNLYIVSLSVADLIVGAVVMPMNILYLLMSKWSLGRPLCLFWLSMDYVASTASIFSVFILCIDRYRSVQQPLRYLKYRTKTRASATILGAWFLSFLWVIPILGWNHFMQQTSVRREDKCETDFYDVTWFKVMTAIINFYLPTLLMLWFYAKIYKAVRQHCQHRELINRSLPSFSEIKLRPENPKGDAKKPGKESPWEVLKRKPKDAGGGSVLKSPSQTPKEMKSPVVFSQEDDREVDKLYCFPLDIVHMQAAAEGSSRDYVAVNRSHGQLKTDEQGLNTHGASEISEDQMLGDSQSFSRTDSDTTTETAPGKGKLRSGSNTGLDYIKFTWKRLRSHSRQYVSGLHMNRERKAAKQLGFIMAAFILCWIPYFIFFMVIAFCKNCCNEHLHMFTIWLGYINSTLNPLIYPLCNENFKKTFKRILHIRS

Cannabinoid receptor 1 [9] = molecular target: T2, Cannabinoid receptor 1; assay type: functional, cell-based; remark: listed apart in the source
[10] = molecular target: T3, Muscarinic acetylcholine receptor M1 (Homo sapiens, UniProt P11229); assay type: functional
T3 sequence (P11229 whole entry): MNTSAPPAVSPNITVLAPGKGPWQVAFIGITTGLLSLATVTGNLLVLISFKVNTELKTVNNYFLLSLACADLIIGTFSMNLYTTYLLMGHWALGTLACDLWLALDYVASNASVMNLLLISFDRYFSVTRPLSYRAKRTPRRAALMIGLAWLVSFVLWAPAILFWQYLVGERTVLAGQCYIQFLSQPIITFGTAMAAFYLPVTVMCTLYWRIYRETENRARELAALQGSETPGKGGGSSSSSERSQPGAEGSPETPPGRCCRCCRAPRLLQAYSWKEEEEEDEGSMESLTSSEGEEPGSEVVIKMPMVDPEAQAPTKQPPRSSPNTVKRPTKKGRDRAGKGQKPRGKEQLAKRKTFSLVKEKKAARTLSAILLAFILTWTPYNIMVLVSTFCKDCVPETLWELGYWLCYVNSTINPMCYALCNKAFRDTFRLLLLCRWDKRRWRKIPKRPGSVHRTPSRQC

[11] = molecular target: T3, Muscarinic acetylcholine receptor M1; assay type: functional, cell-based
[12] = molecular target: T3, Muscarinic acetylcholine receptor M1; assay type: functional, cell-based; remark: listed apart in the source
Also: assay procedure not described here.

AC50 [3] [µM] | AC50 [4] [µM] | AC50 (D(3) dopamine receptor) [µM] | AC50 (Histamine H2 receptor) [µM] | AC50 [5] [µM] | AC50 [6] [µM] | AC50 (Cannabinoid receptor 1 [8]) [µM] | AC50 (Cannabinoid receptor 1 [9]) [µM] | Structure (SMILES) | AC50 [2] [µM] | AC50 [11] [µM] | AC50 [12] [µM] | also measured
 |  |  |  |  |  |  |  | N[C@@H](Cc1ccc(N(CCCl)CCCl)cc1)C(=O)O |  |  |  | AC50 [1]: > 30 µM
 |  |  |  |  |  |  |  | CC(=O)OC1CN2CCC1CC2 (configuration not stated) [ACECLIDINE] | > 30 |  |  | 
 |  |  |  |  |  |  |  | CC1=C(/C=C/C(C)=C\C=C\C(C)=C\C(=O)O)C(C)(C)CCC1 [ALITRETINOIN] | > 30 |  |  | 
 |  |  |  |  |  |  |  | CC(=O)Nc1ccc(/C=N/NC(N)=S)cc1 [AMITHIOZONE] | > 30 |  |  | 
> 30 | > 30 | > 30 | > 30 | > 10 | > 10 | > 30 | > 30 | COc1ccc(-c2cc(=S)ss2)cc1 [ANETHOLTRITHION] |  |  |  | AC50 [7]: > 30 µM; AC50 (Histamine H1 receptor): > 30 µM; AC50 [10]: > 30 µM
 |  |  |  |  |  |  |  | Cn1c(CCCC(=O)O)nc2cc(N(CCCl)CCCl)ccc21 [BENDAMUSTINE] | > 30 | > 30 | > 30 | 
 |  |  |  |  |  |  |  | O=C(OOC(=O)c1ccccc1)c1ccccc1 [BENZOYL PEROXIDE] | > 30 | > 30 | > 30 | 
> 30 | > 30 | > 30 | > 30 | > 30 | > 30 | > 30 | > 30 | C[C@]12CCC(=O)C=C1C=C[C@@H]1[C@@H]2CC[C@@]2(C)[C@H]1CC[C@@]21CCC(=O)O1 [CANRENONE] |  |  |  | AC50 [7]: > 30 µM; AC50 (Histamine H1 receptor): > 30 µM; AC50 [10]: > 30 µM
> 10 | > 10 | > 30 | > 10 | > 30 | > 30 | > 30 | > 30 | CN(C)CCC(O)(c1ccccc1)c1ccccc1Cl (configuration not stated) [CHLOPHEDIANOL] |  |  |  | AC50 [7]: 4.4 µM; AC50 (Histamine H1 receptor): > 10 µM; AC50 [10]: > 10 µM
> 30 | > 30 | > 30 | > 30 | > 30 | > 30 | > 30 | > 30 | C[C@]12C=CC(=O)C=C1C(Cl)=C[C@@H]1[C@@H]2[C@@H](O)C[C@@]2(C)[C@H]1CC[C@]2(O)C(=O)CO [CLOPREDNOL] |  |  |  | AC50 [7]: > 30 µM; AC50 (Histamine H1 receptor): > 30 µM; AC50 [10]: > 30 µM
26 | > 30 | > 30 | > 30 | > 30 | > 30 |  |  | C[C@]12CCC(=O)C=C1[C@@H]1C[C@@H]1[C@H]1[C@@H]3[C@@H]4C[C@@H]4[C@@]4(CCC(=O)O4)[C@@]3(C)CC[C@@H]12 [DROSPIRENONE] |  |  |  | AC50 [7]: 24 µM; AC50 (Histamine H1 receptor): > 30 µM; AC50 [10]: > 30 µM
 |  |  |  |  |  |  |  | COc1cccc2c1C(=O)c1c(O)c3c(c(O)c1C2=O)C[C@@](O)(C(=O)CO)C[C@@H]3O[C@H]1C[C@H](N)[C@@H](O)[C@H](C)O1 [EPIRUBICIN] | > 30 |  |  | 
> 30 | > 30 | > 30 | > 30 | > 30 | > 30 | > 30 | > 30 | CC(C)(Oc1ccc(Cl)cc1)C(=O)OCCOC(=O)c1cccnc1 [ETOFIBRATE] |  |  |  | AC50 [7]: > 30 µM; AC50 (Histamine H1 receptor): > 30 µM; AC50 [10]: > 30 µM
 |  |  |  |  |  |  |  | CC(C)Cc1ccc(C(C)C(=O)OCc2ccccn2)cc1 (configuration not stated) [IBUPROFEN PICONOL] | > 30 | > 30 | > 10 | 
 |  |  |  |  |  |  |  | CC1=C(/C=C/C(C)=C/C=C/C(C)=C\C(=O)O)C(C)(C)CCC1 [ISOTRETINOIN] | > 30 |  |  | 
 |  |  |  |  |  |  |  | CC(C)NC[C@H](O)COc1ccc(CCOCC2CC2)cc1 [LEVOBETAXOLOL] | > 30 | > 30 | > 30 | 
 |  |  |  |  |  |  |  | Cc1cccc(C)c1NC(=O)CN(CC(=O)O)CC(=O)O [LIDOFENIN] | > 30 | > 30 | > 30 | 
 |  |  |  |  |  |  |  | CN1CCc2c(c3ccccc3n2Cc2ccccc2)C1 [MEBHYDROLIN] | 25.4 | > 30 | 1.96 | 
 |  |  |  |  |  |  |  | CC(C)=CCC/C(C)=C/CC/C(C)=C/CC/C(C)=C/CC1=C(C)C(=O)c2ccccc2C1=O [MENATETRENONE] | > 30 | > 30 | > 30 | 
 |  |  |  |  |  |  |  | CSCC[C@H](N)C(=O)O [METHIONINE] | > 30 |  |  | 
 |  |  |  |  |  |  |  | CC(=O)OCC(=O)[C@@]1(O)CC[C@H]2[C@@H]3C[C@H](C)C4=CC(=O)C=C[C@]4(C)[C@H]3[C@@H](O)C[C@@]21C [METHYLPREDNISOLONE ACETATE] | > 30 | > 30 | > 30 | 
 |  |  |  |  |  |  |  | O=C1Nc2ccccc2C1(c1ccc(O)cc1)c1ccc(O)cc1 [OXYPHENISATINE] | > 30 | > 30 | > 30 | 
> 10 | > 30 | > 30 | > 10 | > 30 | > 30 | > 30 | > 30 | C[C@]12C=CC(=O)C=C1CC[C@@H]1[C@@H]2[C@@H](O)C[C@@]2(C)[C@H]1CC[C@]2(O)C(=O)CO [PREDNISOLONE] |  |  |  | 
> 10 | > 10 | 0.53 | > 10 | > 30 | > 10 |  |  | CCC(=O)c1ccc2c(c1)N(CC(C)N(C)C)c1ccccc1S2 (configuration not stated) [PROPIOMAZINE] |  |  |  | AC50 [7]: 1 µM; AC50 (Histamine H1 receptor): 0.034 µM; AC50 [10]: 0.12 µM
 |  |  |  |  |  |  |  | CNC(=O)c1cnn(-c2nc(N)c3ncn([C@@H]4O[C@H](CO)[C@@H](O)[C@H]4O)c3n2)c1 [REGADENOSON ANHYDROUS] | > 30 | > 30 | > 30 | 
> 10 | > 10 | > 30 | > 10 | > 30 | > 30 | > 30 | > 30 | CN(C)[C@@H]1C(O)=C(C(=O)NCN2CCCC2)C(=O)[C@@]2(O)C(O)=C3C(=O)c4c(O)cccc4[C@@](C)(O)[C@H]3C[C@@H]12 [ROLITETRACYCLINE] |  |  |  | AC50 [7]: > 30 µM; AC50 (Histamine H1 receptor): > 10 µM; AC50 [10]: > 10 µM
 |  |  |  |  |  |  |  | CC1(C)CCC(C)(C)c2cc(NC(=O)c3ccc(C(=O)O)cc3)ccc21 [TAMIBAROTENE] | > 30 | > 30 | > 10 | 
> 30 | > 30 | > 30 | > 30 | > 30 | > 30 | > 30 | > 30 | CC1(C)O[C@@H]2C[C@H]3[C@@H]4CCC5=CC(=O)C=C[C@]5(C)[C@@]4(F)[C@@H](O)C[C@]3(C)[C@]2(C(=O)CO)O1 [TRIAMCINOLONE ACETONIDE] |  |  |  | 
 |  |  |  |  |  |  |  | CCOC1O[C@H]([C@@H](COCc2ccccc2)OCc2ccccc2)[C@H](OCc2ccccc2)[C@H]1O (some centres not stated) [TRIBENOSIDE] | > 30 | > 30 | 8.21 | 
 |  |  |  |  |  |  |  | N[C@@H](Cc1ccc(O)cc1)C(=O)O [TYROSINE] | > 30 | > 30 | > 30 | 

Structure (SMILES) | AC50 [3] [µM] | AC50 [4] [µM] | AC50 (D(3) dopamine receptor) [µM] | AC50 (Histamine H2 receptor) [µM] | AC50 [5] [µM] | AC50 [6] [µM] | AC50 (Cannabinoid receptor 1 [8]) [µM] | AC50 (Cannabinoid receptor 1 [9]) [µM] | AC50 [2] [µM] | AC50 [11] [µM] | AC50 [12] [µM] | also measured
N=C(N)NC(=O)c1nc(Cl)c(N)nc1N [AMILORIDE] | > 30 | > 30 | > 30 | > 30 | > 30 | > 30 |  |  | > 30 |  |  | 
COc1cccc2c1C(=O)c1c(O)c3c(c(O)c1C2=O)C[C@@](O)(C(=O)CO)C[C@@H]3O[C@H]1C[C@H](N)[C@H](O)[C@H](C)O1 [DOXORUBICIN] | > 10 | > 30 | > 30 | > 10 | > 30 | > 30 | > 30 | > 30 | > 30 |  |  | 
Oc1cc(Cl)ccc1Oc1ccc(Cl)cc1Cl [TRICLOSAN] | > 30 | > 30 | > 30 | > 30 |  | > 30 | > 30 | > 30 |  |  |  | AC50 [7]: > 30 µM; AC50 (Histamine H1 receptor): > 30 µM; AC50 [10]: > 30 µM
